What was measured:
[1] = system: SDMA levels in the tumor (U87MG tumor cells implanted subcutaneously); test: Test for in vivo target inhibitory activity (SDMA levels in U87MG tumor); details: U87MG tumor in nude mice, oral 25 or 50 mg/kg 1-2 times daily for one week
Method: Test for in vivo target inhibitory activity
After U87MG tumor cells were implanted subcutaneously in nude mice, a PRMT5 inhibitor was administered orally (25 or 50 mg/kg) 1-2 times daily for one week, and then the degree to which SDMA levels in the tumor decreased was measured.
Reagents: Bradford's solution (Catalog No. 500-0006) was purchased from Bio-rad (USA). SDMA antibody (Catalog No. 13222s) was purchased from Cell Signaling Technology (USA). SmD3 antibody (Catalog No. ap12451a) was purchased from Abgent (USA), and secondary antibody (Catalog No. ab6721) and TMB substrate (Catalog No. ab210902) were purchased from Abcam (UK).
Experimental procedure: The tumor tissues transplanted into the mice were excised, the cells were lysed, and then quantified with Bradford's solution. 5-10 μg of protein per sample was diluted with carbonate-bicarbonate buffer and dispensed into a 96-well plate and reacted at room temperature for 2 hours. After washing with phosphate buffered saline (PBST) containing 0.05% Tween-20 3 times, 200 μL of PBST containing 5% bovine serum albumin (BSA-PBST) was added and reacted at room temperature for 2 hours. After washing with PBST 3 times, the SDMA antibody and the SmD3 antibody were diluted in BSA-PBST, and 100 μL of each was dispensed onto the plate and reacted at 4° C. overnight. After washing with PBST 3 times the next day, 100 μL of the secondary antibody diluted in BSA-PBST was added and reacted at room temperature for 1 hour. After washing with PBST 3 times, 100 μL of TMB substrate was added and reacted at room temperature for 10-20 minutes, and 100 μL of 1N sulfuric acid solution was added to terminate the reaction. Then, the absorbance at 450 nm was measured to calculate the degree of SDMA inhibition by the compound. (+++: more than 70%, ++: more than 30% and 70% or less, +: 30% or less)

[2] = molecular target: PRMT5-MEP50 enzyme complex (Homo sapiens (Human), UniProt O14744); test: PRMT5 enzyme activity in vitro assay (methylation of histone H4R3, ELISA absorbance at 450 nm); assay type: biochemical; details: SAM, histone H4 peptide, room temperature 2 hours, 8 points from 10 μM to 0.128 nM
Procedure, shortened: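 Human PRMT5-MEP50 was prepared at 5 μg/mL with SAM at 2 μM and reacted 2 h at room temperature on plate-coated histone H4 (1-20) peptide. An 8-point 1:5 compound series ran from 10 μM to 0.128 nM. H4R3 methylation was detected by antibody/HRP ELISA at 450 nm to give IC50.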

PRMT5-MEP50 enzyme complex, sequence (O14744 2-637): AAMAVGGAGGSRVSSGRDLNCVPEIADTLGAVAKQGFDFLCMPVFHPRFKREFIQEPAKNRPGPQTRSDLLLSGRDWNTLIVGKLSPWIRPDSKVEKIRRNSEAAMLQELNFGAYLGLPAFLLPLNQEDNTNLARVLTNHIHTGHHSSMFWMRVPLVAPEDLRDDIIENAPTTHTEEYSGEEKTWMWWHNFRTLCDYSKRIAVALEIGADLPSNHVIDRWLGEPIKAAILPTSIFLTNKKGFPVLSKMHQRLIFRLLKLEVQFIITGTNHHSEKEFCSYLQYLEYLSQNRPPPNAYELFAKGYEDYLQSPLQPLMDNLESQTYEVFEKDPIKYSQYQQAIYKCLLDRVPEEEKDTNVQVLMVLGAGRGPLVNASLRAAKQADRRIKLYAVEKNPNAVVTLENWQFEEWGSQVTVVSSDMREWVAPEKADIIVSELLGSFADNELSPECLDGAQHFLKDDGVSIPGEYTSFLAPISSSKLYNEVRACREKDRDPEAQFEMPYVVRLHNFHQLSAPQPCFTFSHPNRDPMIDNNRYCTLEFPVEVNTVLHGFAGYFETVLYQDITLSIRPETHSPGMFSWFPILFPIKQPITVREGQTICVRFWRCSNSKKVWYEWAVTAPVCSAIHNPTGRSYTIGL
PRMT5-MEP50 enzyme complex, sequence (Q9BQA1 2-342 partner): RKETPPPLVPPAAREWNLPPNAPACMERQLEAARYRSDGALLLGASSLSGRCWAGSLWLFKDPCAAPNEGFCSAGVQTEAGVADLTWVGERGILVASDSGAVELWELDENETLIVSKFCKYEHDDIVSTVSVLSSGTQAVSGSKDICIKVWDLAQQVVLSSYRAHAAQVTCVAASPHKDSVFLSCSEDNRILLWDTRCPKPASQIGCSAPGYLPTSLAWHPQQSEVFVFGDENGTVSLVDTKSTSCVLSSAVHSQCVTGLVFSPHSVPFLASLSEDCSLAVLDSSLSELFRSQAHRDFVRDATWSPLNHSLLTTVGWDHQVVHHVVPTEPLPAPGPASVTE

Compound | SDMA inhibition (%) [1] | IC50 [2] [µM]
CCCc1ccc2c(c1)OCCN(C[C@H](O)CN1CCc3ccccc3C1)C2=O [Example 11, 4-[(2R)-3-(3,4-dihydro-1H-isoquinolin-2-yl)-2-hydroxy-propyl]-8-propyl-2,3-dihydro-1,4-benzoxazepin-5-one] | ++ (++: more than 30% and 70% or less) | 0.1 to 1
O=C1c2ccc(CN3CCOCC3)cc2OCCN1C[C@H](O)CN1CCc2ccccc2C1 [Example 22, 4-[(2R)-3-(3,4-dihydro-1H-isoquinolin-2-yl)-2-hydroxy-propyl]-8-(morpholinomethyl)-2,3-dihydro-1,4-benzoxazepin-5-one] | +++ (+++: more than 70%) | 0.001 to 0.1
CN1CCC(Oc2ccc3c(c2)OCCN(C[C@H](O)CN2CCc4ccccc4C2)C3=O)CC1 [Example 87, 4-[(2R)-3-(3,4-dihydro-1H-isoquinolin-2-yl)-2-hydroxy-propyl]-8-[(1-methyl-4-piperidyl)oxy]-2,3-dihydro-1,4-benzoxazepin-5-one] | +++ (+++: more than 70%) | 0.001 to 0.1
CCN1CCC(Oc2ccc3c(c2)OCCN(C[C@H](O)CN2CCc4ccccc4C2)C3=O)CC1 [Example 88, 4-[(2R)-3-(3,4-dihydro-1H-isoquinolin-2-yl)-2-hydroxy-propyl]-8-[(1-ethyl-4-piperidyl)oxy]-2,3-dihydro-1,4-benzoxazepin-5-one] | +++ (+++: more than 70%) | 0.001 to 0.1
O=C1c2ccc(OC3CCN(C4COC4)CC3)cc2OCCN1C[C@H](O)CN1CCc2ccccc2C1 [Example 92, 4-[(2R)-3-(3,4-dihydro-1H-isoquinolin-2-yl)-2-hydroxy-propyl]-8-[[1-(oxetan-3-yl)-4-piperidyl]oxy]-2,3-dihydro-1,4-benzoxazepin-5-one] | +++ (+++: more than 70%) | 0.1 to 1
CN1CCC(Oc2ccc3c(c2)OC(C)(C)CN(C[C@H](O)CN2CCc4ccccc4C2)C3=O)CC1 [Example 112, 4-[(2R)-3-(3,4-dihydro-1H-isoquinolin-2-yl)-2-hydroxy-propyl]-2,2-dimethyl-8-[(1-methyl-4-piperidyl)oxy]-3H-1,4-benzoxazepin-5-one] | +++ (+++: more than 70%) | 0.1 to 1
O=C1c2ccc(Br)cc2CCCN1C[C@H](O)CN1CCc2ccccc2C1 [Example 155, 7-bromo-2-[(2R)-3-(3,4-dihydro-1H-isoquinolin-2-yl)-2-hydroxy-propyl]-4,5-dihydro-3H-2-benzazepin-1-one] | + (+: 30% or less) | 0.001 to 0.1
CN1CCN(C[C@H](O)CN2CCc3ccccc3C2)C(=O)c2ccc(Br)cc21 [Example 156, 8-bromo-4-[(2R)-3-(3,4-dihydro-1H-isoquinolin-2-yl)-2-hydroxy-propyl]-1-methyl-2,3-dihydro-1,4-benzodiazepin-5-one] | ++ (++: more than 30% and 70% or less) | 0.001 to 0.1
C[C@@H]1CN(C[C@H](O)CN2CCc3ccccc3C2)C(=O)c2ccc(OC3CCN(C[C@@H](C)O)CC3)cc2O1 [Example 268, (2R)-4-[(2R)-3-(3,4-dihydro-1H-isoquinolin-2-yl)-2-hydroxy-propyl]-8-[[1-[(2R)-2-hydroxypropyl]-4-piperidyl]oxy]-2-methyl-2,3-dihydro-1,4-benzoxazepin-5-one] | – | 0.1 to 1
COCCN1CC[C@@H](Oc2ccc3c(c2)OCCN(C[C@H](O)CN2CCc4ccccc4C2)C3=O)C1 [Example 272, 4-[(2R)-3-(3,4-dihydro-1H-isoquinolin-2-yl)-2-hydroxy-propyl]-8-[(3R)-1-(2-methoxyethyl)pyrrolidin-3-yl]oxy-2,3-dihydro-1,4-benzoxazepin-5-one] | – | 0.1 to 1
C[C@@H]1CN(C[C@H](O)CN2CCc3ccccc3C2)C(=O)c2ccc(O[C@@H]3CCN(C)C3)cc2O1 [Example 273, (2R)-4-[(2R)-3-(3,4-dihydro-1H-isoquinolin-2-yl)-2-hydroxy-propyl]-2-methyl-8-[(3R)-1-methylpyrrolidin-3-yl]oxy-2,3-dihydro-1,4-benzoxazepin-5-one] | – | 0.1 to 1
COCCN1CC[C@@H](Oc2ccc3c(c2)O[C@H](C)CN(C[C@H](O)CN2CCc4ccccc4C2)C3=O)C1 [Example 274, (2R)-4-[(2R)-3-(3,4-dihydro-1H-isoquinolin-2-yl)-2-hydroxy-propyl]-8-[(3R)-1-(2-methoxyethyl)pyrrolidin-3-yl]oxy-2-methyl-2,3-dihydro-1,4-benzoxazepin-5-one] | – | 0.1 to 1

Reference: patent US11111237B2, “Bicyclic compound and use thereof” (SK BIOPHARMACEUTICALS CO., LTD., priority 2019, dated 2021)
